Experimental data taken from patent publication US20130252930A1 (BIOMARIN PHARMACEUTICAL INC., priority 2010, published 2013).
Where two headings read alike, the source gives them in different places.

Legend:
CYP17 (H295R cells) = biological target: T1, CYP17 (H295R cells) (Homo sapiens, UniProt P05093); test: CYP17 cellular assay (IC50), testosterone in H295R cells (Biological Example 7); assay type: cell-based; conditions: H295R cells
T1 construct: endogenous in cells; host or cells: H295R cells
T1 sequence (P05093 1-508): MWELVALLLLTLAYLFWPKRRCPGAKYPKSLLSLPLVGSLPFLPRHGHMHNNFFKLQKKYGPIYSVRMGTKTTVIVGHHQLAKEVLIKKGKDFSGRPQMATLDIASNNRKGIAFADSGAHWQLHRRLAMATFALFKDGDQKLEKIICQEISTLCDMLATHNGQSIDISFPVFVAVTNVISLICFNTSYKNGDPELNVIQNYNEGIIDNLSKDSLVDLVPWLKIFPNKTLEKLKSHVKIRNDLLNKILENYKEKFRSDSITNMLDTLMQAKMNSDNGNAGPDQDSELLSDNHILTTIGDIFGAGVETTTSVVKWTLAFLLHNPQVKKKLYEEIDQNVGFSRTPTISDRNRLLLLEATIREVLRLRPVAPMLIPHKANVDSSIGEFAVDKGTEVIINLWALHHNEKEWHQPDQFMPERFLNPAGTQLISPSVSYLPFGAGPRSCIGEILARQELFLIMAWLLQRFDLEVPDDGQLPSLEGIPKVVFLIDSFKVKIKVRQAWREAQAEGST
Experimental: The assays were performed in 96-well plates. Typically H295R cells were seeded at 4.5×10^4 cells/well in 100 μL Growth Medium containing DMEM/F-12 (Gibco/Invitrogen; 11330-032), 2.5% Nu-Serum (BD Bioscience; 355100) and ITS (BD Bioscience; 354352), and cultured at 37° C., 5% CO2 for 24 hr. The next day, media were carefully removed and cells were washed twice with 200 μL 1×HBSS++. Test compounds were then added to the cells at 100, 10, 1, 0.1 nM final concentrations in 125 μL volume per well in serum-free media containing DMEM/F-12 and ITS+ Premix (BD Bioscience; 354352) with 0.1% methanol. Serum-free media with 0.1% methanol without test compound was used as control. Cells were incubated with compounds at 37° C. for additional 24 hours, and the cultured media from each compound treated well was harvested for measurement of testosterone concentration by ELISA according to manufacturer's instruction (Assay Design). Testosterone concentration of each sample was plotted vs. the concentration of the test compounds.

[1] = Human liver microsome stability assay (Biological Example 8b); conditions: liver microsomes, pH 7.4
Experimental: The reaction was started with addition of excess NADPH (5 mg/mL, 15 μL in 0.1 M potassium phosphate buffer, 1.0 mM EDTA, pH 7.4), the total volume is 45 μL (compound final concentration was 1 μM). […] 50 μL of the supernatant was transferred from each well into a 96-well sample plate containing 50 μL of ultra-pure water (Millipore) for LC-MS/MS analysis.

[2] = biological target: T2, CYP17 (human testicular microsome) (Homo sapiens, UniProt P05093); test: CYP17 enzymatic assay (% inhibition at 1 nM) (Biological Example 12); assay type: biochemical; conditions: compound at 1 nM
T2 construct: using microsomal fraction from human testis (Celsis Cat #S00110) as the enzyme source; tissue Celsis S00110; host or cells: human testis microsomal fraction
T2 sequence (P05093 1-508): T1 sequence (P05093 1-508)

[3] = biological target: T2, CYP17 (human testicular microsome); test: CYP17 enzymatic assay (IC50) (Biological Example 4); assay type: biochemical; conditions: human testicular microsome
[4] = biological target: T2, CYP17 (human testicular microsome); test: CYP17 enzymatic assay (% inhibition at 10 nM), version 1 (Biological Example 5); assay type: biochemical; conditions: 10 nM compound, DHEA by ELISA, read-out: Biological Example No. 5: CYP17 percent inhibition at 10 nM (version 1)
[5] = testosterone, read-out: Biological Example No. 7: CYP17 cellular assay IC50
[6] = read-out: Biological Example No. 12: CYP17 enzymatic assay % inhibition at 1 nM
[7] = read-out: Biological Example No. 4: CYP17 enzymatic assay IC50
[8] = testosterone, read-out: CYP17 cellular assay IC50 (Biological Example No. 7)
[9] = read-out: CYP17 enzymatic assay % inhibition at 1 nM (Biological Example No. 12)
[10] = testosterone by ELISA, 24 hours, read-out: Biological Example No. 7: CYP17 cellular assay IC50
[11] = DHEA by ELISA, read-out: Biological Example No. 4: CYP17 enzymatic assay IC50
[12] = read-out: CYP17 enzymatic assay IC50 (Biological Example No. 4)

In the case of `C[C@]12CC[C@H]3[C@@H](CC4CC45C[C@@H](O)CC[C@]35C)[C@@H]1CC=C2c1cccnc1` (single isomer, unassigned) [Compound 317], the IC50 (CYP17 (H295R cells); [5]) is reported as under 15 nM, the half-life at 1 μM [1] is reported as 1 to 50 min and the inhibition at 0.001 µM [2, 6] is reported as over 50%. It also gave an IC50 [3, 7] of under 11 nM.

Compound `CC(=O)N[C@@H]1CC[C@@]2(C)C(CCC3C2CC[C@]2(C)C(c4cnccc4C)=CCC32)C1` (stereo partly drawn) [Compound 21, N-((3R,10S,13S)-10,13-dimethyl-17-(4-methylpyridin-3-yl)-2,3,4,5,6,7,8,9,10,11,12,13,14,15-tetradecahydro-1H-cyclopenta[a]phenanthren-3-yl)acetamide] has an IC50 (CYP17 (H295R cells); [8]) of under 15 nM, a half-life at 1 μM [1] of 1 to 50 min and an inhibition at 0.001 µM [2, 9] of over 50%.

With `C[C@]12CCCC(=O)C1CC[C@@H]1[C@@H]2CC[C@]2(C)C(c3cccnc3)=CC[C@@H]12` (stereo partly drawn) [Compound 89, (10R,13S)-10,13-dimethyl-17-(pyridin-3-yl)-2,3,5,6,7,8,9,11,12,13,14,15-dodecahydro-1H-cyclopenta[a]phenanthren-4(10H)-one] the IC50 (CYP17 (H295R cells); [10]) was under 15 nM, the IC50 [3, 11] was under 11 nM and the inhibition at 0.01 µM [4] was over 80%.

With `CC(=O)O[C@H]1CC[C@@]2(C)[C@@H](CC[C@@H]3[C@@H]2CC[C@]2(C)C(n4ccnn4)=CC[C@@H]32)C1` [Compound 130, (3S,5S,8R,9S,10S,13S,14S)-10,13-dimethyl-17-(1H-1,2,3-triazol-1-yl)-2,3,4,5,6,7,8,9,10,11,12,13,14,15-tetradecahydro-1H-cyclopenta[a]phenanthren-3-yl acetate] the IC50 (CYP17 (H295R cells); [10]) was under 15 nM, the IC50 [3, 11] was under 11 nM and the inhibition at 0.01 µM [4] was over 80%.

In the case of `Cc1ccncc1C1=CC=C2[C@@H]3CC=C4C[C@@H](O)CC[C@]4(C)[C@H]3CC[C@]12C` [Compound 190, (3S,10R,13S)-10,13-dimethyl-17-(4-methylpyridin-3-yl)-2,3,4,7,8,9,10,11,12,13-decahydro-1H-cyclopenta[a]phenanthren-3-ol], the IC50 (CYP17 (H295R cells); [8]) is reported as 15 to 100 nM, the half-life at 1 μM [1] is reported as 1 to 50 min and the inhibition at 0.001 µM [2, 9] is reported as over 50%.

In the case of `CC(C)C(=O)N[C@@H]1CC[C@@]2(C)C(CCC3C2CC[C@]2(C)C(c4cccnc4)=CCC32)C1` (stereo partly drawn) [Compound 216, N-((3R,10S,13S)-10,13-dimethyl-17-(pyridin-3-yl)-2,3,4,5,6,7,8,9,10,11,12,13,14,15-tetradecahydro-1H-cyclopenta[a]phenanthren-3-yl)isobutyramide], the IC50 (CYP17 (H295R cells); [8]) is reported as under 15 nM, the half-life at 1 μM [1] is reported as 1 to 50 min and the inhibition at 0.001 µM [2, 9] is reported as over 50%.

`CC(=O)N[C@@H]1CC[C@@]2(C)C(=CCC3C2CC[C@]2(C)C(c4cccnc4)=CCC32)C1` (stereo partly drawn) [Compound 223, N-((3R,10R,13S)-10,13-dimethyl-17-(pyridin-3-yl)-2,3,4,7,8,9,10,11,12,13,14,15-dodecahydro-1H-cyclopenta[a]phenanthren-3-yl)acetamide] gave an IC50 (CYP17 (H295R cells); [8]) of under 15 nM, a half-life at 1 μM [1] of 1 to 50 min and an inhibition at 0.001 µM [2, 9] of over 50%. The IC50 [3, 12] was under 11 nM.

Compound `CC(=O)N[C@@H]1CC[C@@]2(C)C(=CCC3C4=CC=C(c5cccnc5)[C@@]4(C)CCC32)C1` (stereo partly drawn) [Compound 243, N-((3R,10R,13S)-10,13-dimethyl-17-(pyridin-3-yl)-2,3,4,7,8,9,10,11,12,13-decahydro-1H-cyclopenta[a]phenanthren-3-yl)acetamide] has an IC50 (CYP17 (H295R cells); [8]) of under 15 nM, a half-life at 1 μM [1] of 1 to 50 min and an inhibition at 0.001 µM [2, 9] of over 50%.

`C[C@]1(O)CC[C@@]2(C)C(CCC3C2CC[C@]2(C)C(c4cncc(F)c4)=CCC32)C1` (stereo partly drawn) [Compound 264, (3S,10S,13S)-17-(5-fluoropyridin-3-yl)-3,10,13-trimethyl-2,3,4,5,6,7,8,9,10,11,12,13,14,15-tetradecahydro-1H-cyclopenta[a]phenanthren-3-ol] gave an IC50 (CYP17 (H295R cells); [5]) of under 15 nM, a half-life at 1 μM [1] of 1 to 50 min and an IC50 [3, 7] of under 11 nM.

`C[C@]12CC[C@H]3[C@@H](CC=C4C[C@@H](O)CC[C@@]43C)C1=CC=C2c1cncc(F)c1` [Compound 271, (3S,10R,13S)-17-(5-fluoropyridin-3-yl)-10,13-dimethyl-2,3,4,7,8,9,10,11,12,13-decahydro-1H-cyclopenta[a]phenanthren-3-ol] gave an IC50 (CYP17 (H295R cells); [5]) of under 15 nM, a half-life at 1 μM [1] of 1 to 50 min and an inhibition at 0.001 µM [2, 6] of over 50%. It also gave an IC50 [3, 7] of under 11 nM.

In the case of `C[C@]12CC[C@H](O)CC1=CCC1C2CC[C@]2(C)C(c3cncc(C(F)F)c3)=CCC12` (stereo partly drawn) [Compound 279, (3S,10R,13S)-17-(5-(difluoromethyl)pyridin-3-yl)-10,13-dimethyl-2,3,4,7,8,9,10,11,12,13,14,15-dodecahydro-1H-cyclopenta[a]phenanthren-3-ol], the IC50 (CYP17 (H295R cells); [5]) is reported as under 15 nM, the half-life at 1 μM [1] is reported as over 50 min and the inhibition at 0.001 µM [2, 6] is reported as over 50%. The IC50 [3, 7] was under 11 nM.

For `CC1C(O)CC[C@@]2(C)C1CC[C@@H]1[C@@H]2CC[C@]2(C)C(c3cccnc3)=CC[C@@H]12` (stereo partly drawn) [Compound 304, (10R,13S)-4,10,13-trimethyl-17-(pyridin-3-yl)-2,3,4,5,6,7,8,9,10,11,12,13,14,15-tetradecahydro-1H-cyclopenta[a]phenanthren-3-ol], the IC50 (CYP17 (H295R cells); [5]) was under 15 nM, the inhibition at 0.001 µM [2, 6] was 10 to 50% and the IC50 [3, 7] was under 11 nM.

With `C[C@]12CC[C@H]3[C@@H](CCC45CC4C(O)CC[C@]35C)[C@@H]1CC=C2c1cccnc1` (stereo partly drawn) [Compound 314, (4aR,6aS)-4a,6a-dimethyl-7-(pyridin-3-yl)-1a,2,3,4,4a,4b,5,6,6a,9,9a,9b,10,11-tetradecahydro-1H-cyclopenta[a]cyclopropa[j]phenanthren-2-ol] the IC50 (CYP17 (H295R cells); [8]) was under 15 nM, the inhibition at 0.001 µM [2, 9] was over 50% and the IC50 [3, 12] was under 11 nM.

With `C[C@]12CCC3C(CC(F)C4(O)C[C@@H](O)CC[C@]34C)C1CC=C2c1cncc(F)c1` (stereo partly drawn) [Compound 321, (3S,10R,13S)-6-fluoro-17-(5-fluoropyridin-3-yl)-10,13-dimethyl-2,3,4,5,6,7,8,9,10,11,12,13,14,15-tetradecahydro-1H-cyclopenta[a]phenanthrene-3,5-diol] the IC50 (CYP17 (H295R cells); [5]) was under 15 nM, the half-life at 1 μM [1] was 1 to 50 min and the inhibition at 0.001 µM [2, 6] was over 50%. It also gave an IC50 [3, 7] of under 11 nM.

`C[C@]12CCC(=O)C=C1C1CC1[C@@H]1[C@@H]2CC[C@]2(C)C(c3cncc(F)c3)=CC[C@@H]12` (stereo partly drawn) [Compound 330, (4aR,6aS)-7-(5-fluoropyridin-3-yl)-4a,6a-dimethyl-4,4a,4b,5,6,6a,9,9a,9b,9c,10,10a-dodecahydrocyclopenta[a]cyclopropa[l]phenanthren-2(3H)-one] gave an IC50 (CYP17 (H295R cells); [5]) of under 15 nM, a half-life at 1 μM [1] of 1 to 50 min and an inhibition at 0.001 µM [2, 6] of over 50%. It also gave an IC50 [3, 7] of under 11 nM.

`C[C@]12CCNC(=O)C=C1CCC1C2CC[C@]2(C)C(c3cncc(C(F)F)c3)=CCC12` (stereo partly drawn) [Compound 386, (5aR,7aS)-8-(5-(difluoromethyl)pyridin-3-yl)-5a,7a-dimethyl-3,4,5,5a,5b,6,7,7a,10,10a,11,12-dodecahydrocyclopenta[5,6]naphtho[1,2-d]azepin-2(10bH)-one] showed an IC50 (CYP17 (H295R cells); [5]) of under 15 nM, a half-life at 1 μM [1] of 1 to 50 min and an inhibition at 0.001 µM [2, 6] of over 50%. For the same compound, the IC50 [3, 7] was under 11 nM.

Work on `C[C@]12CCC(F)CC1=CC[C@@H]1[C@@H]2CC[C@]2(C)C(c3cncc(F)c3)=CC[C@@H]12` (stereo partly drawn) [Compound 401, 3-fluoro-5-((10R,13S)-3-fluoro-10,13-dimethyl-2,3,4,7,8,9,10,11,12,13,14,15-dodecahydro-1H-cyclopenta[a]phenanthren-17-yl)pyridine] yielded an IC50 (CYP17 (H295R cells); [5]) of under 15 nM, a half-life at 1 μM [1] of over 50 min and an IC50 [3, 7] of under 11 nM.
